Assay results reported in patent US20230099067A1, “STABLE EQUIVALENT OF RESOLVIN E2” (NATIONAL UNIVERSITY CORPORATION HOKKAIDO UNIVERSITY, priority 2020, published 2023).

Assays:
[1] = test system: mouse acute inflammation model induced by intraperitoneally transplanting Propionibacterium acnes; assay: Anti-inflammatory property evaluation assay: neutrophil count in peritoneal exudate of the P. acnes-induced mouse acute inflammation model; format: in vivo, mouse (male BALB/c); conditions: for anti-inflammatory activity as compared with the RvE2 and o-BZ-RvE2 groups / number of neutrophils in peritoneal exudate as compared with P. acnes-inoculated control mice: 300 pg intraperitoneally 8 hours after P. acnes injection, FIG. 3; for number of neutrophils in peritoneal exudate as compared with P. acnes-inoculated control mice: n=3 or 4
Description: The strength of the anti-inflammatory action of each compound was evaluated by using a mouse acute inflammation model induced by intraperitoneally transplanting Propionibacterium acnes.
The mouse acute inflammation model was produced using male BALB/c mice (6 to 7 weeks, obtained from Japan SLC Inc.). First, Propionibacterium acnes (P. acnes; 500 μg per mouse) subjected to heat sterilization was intraperitoneally injected into a mouse to prepare an acute inflammation model mouse. Eight or twelve hours after the injection of Propionibacterium acnes, the test compound was intraperitoneally administered to an acute inflammation model mouse. Then, 24 hours after the injection of Propionibacterium acnes, a peritoneal exudate was collected and the number of neutrophils was counted.
Then, 24 hours after the injection of Propionibacterium acnes, a peritoneal exudate was collected and the number of neutrophils was counted.
12 hours after the injection of Propionibacterium acnes, 300 fg, 300 pg, or 300 ng of RvE2 or o-BZ-RvE2, or only a solvent was independently intraperitoneally administered to acute inflammation model mice (n=3 or 4). Then, 24 hours after the injection of Propionibacterium acnes, a peritoneal exudate was collected and the number of neutrophils was counted.
300 pg of RvE2, o-BZ-RvE2, 17-deoxy-o-BZ-RvE2, 5-deoxy-o-BZ-RvE2, or 5,17-dideoxy-o-BZ-RvE2, or only a solvent was intraperitoneally administered to acute inflammation model mice 8 hours after the injection of Propionibacterium acnes (n=3 or 4). Then, 24 hours after the injection of Propionibacterium acnes, a peritoneal exudate was collected and the number of neutrophils was counted.

[2] = Evaluation of metabolic stability with human liver microsomes (HPLC remaining rate); format: in vitro ADME; conditions: 37° C.; for temporal change in the remaining rate in the presence of human liver microsomes: 0.1 M PBS (pH 7.4), HPLC, n=3, FIG. 4; for metabolic stability / degradation by human liver microsomes (in words): Example 1, 0-6 hours, FIG. 2
Description: 60 μL was aliquoted from an ethanol solution (1 mg/1 mL) of the synthetic compound to be evaluated, and the solvent was removed. A 0.1 M PBS buffer (435 μL, pH 7.4), CH3CN (10 μL), an NADPH regeneration system A solution (25 μL), and an NADPH regeneration system B solution (5 μL) were added to each compound, and stirring was carried out with a vortex mixer. After incubating the obtained reaction solution at 37° C. for 5 minutes, human liver microsomes (Corning (registered trade name) UltraPool (registered trade name) HLM 150) (25 μL) were added thereto, and 80 μL of the solution was aliquoted every hour (after 0, 1, 2, 3, and 6 hours from the addition). Each of the aliquoted solutions was quenched by adding CH3CN (80 μL) and then centrifuged (10,000 rpm) for 3 minutes at room temperature. The supernatant was collected and analyzed by using HPLC (COSMOSIL 5C18-MS-II, 4.6 mm×250 mm, CH3CN/H2O/TFA=35/65/0.01, 1.0 mL/min, detection at 254 nm).
The metabolic stability of 17-deoxy-o-BZ-RvE2 and 5-deoxy-o-BZ-RvE2 with respect to human liver microsomes was investigated. Specifically, for RvE2, o-BZ-RvE2, 17-deoxy-o-BZ-RvE2, and 5-deoxy-o-BZ-RvE2, the temporal change in the remaining rate (%) was measured by HPLC in 0.1 M PBS (pH 7.4) in the presence of human liver microsomes at 37° C. (n=3).

[3] = background statement; cited from earlier work
[4] = background statement; cited from earlier work; remark: listed apart in the source
[5] = exudate collected 24 hours after injection

metabolic stability / degradation by human liver microsomes (in words) [2] | Compound | anti-inflammatory activity as compared with the RvE2 and o-BZ-RvE2 groups ([1]; exudate at 24 hours) | number of neutrophils in peritoneal exudate as compared with P. acnes-inoculated control mice [1, 5] | temporal change in the remaining rate in the presence of human liver microsomes [2] | stability with respect to oxygen as compared with RvE2 [3] | metabolic stability [4] | infiltration of neutrophils into the abdominal cavity (number of neutrophils in peritoneal exudate) as compared with solvent alone ([1]; 300 pg intraperitoneally 12 hours after P. acnes injection, exudate collected 24 hours after injection, n=4, FIG. 1(a)) | anti-inflammatory action as compared with RvE2 ([1]; 300 fg, 300 pg or 300 ng intraperitoneally 12 hours after P. acnes injection, exudate at 24 hours, FIGS. 1(a) and 1(b))
 | CCC/C=C/c1ccccc1C/C=C/CCCCC(=O)O [5,17-dideoxy-o-BZ-RvE2] | attenuated | significantly decreased |  |  |  |  | 
 | CC[C@@H](O)/C=C/c1ccccc1C/C=C/CCCCC(=O)O [5-deoxy-o-BZ-RvE2] | attenuated | significantly decreased | gradually decreased as compared with RvE2 |  |  |  | 
 | CCC(O)C=CC=CCC1CC1CC=CC=CC(O)CCCC(=O)O (centres unmarked) [CP-RvE2] |  |  |  | improved stability with respect to oxygen | insufficient metabolic stability |  | 
easily degraded | CC[C@@H](O)/C=C/C=C\C/C=C\C/C=C\C=C\[C@@H](O)CCCC(=O)O [RvE2, (5S,6E,8Z,11Z,14Z,16E,18R)-5,18-dihydroxyicosa-6,8,11,14,16-pentaenoic acid, reference compound] |  | significantly decreased | decreased with the passage of time |  |  |  | 
excellent in metabolic stability | CC[C@@H](O)/C=C/c1ccccc1C/C=C/[C@@H](O)CCCC(=O)O [o-BZ-RvE2] |  | significantly decreased |  |  |  | significantly suppressed | excellent anti-inflammatory action as compared with RvE2
